Results from patent publication US20110183978A1, “Phenylpyri(mi)dinylazoles” (Bayer CropScience AG, priority 2009, published 2011).
Like-named read-outs stand apart in the source and are kept apart here.

Tests used:
[1] = test system: Peronospora parasitica; assay: Example A: in vivo test on Peronospora parasitica (downy mildew on white cabbage); conditions: Hyaloperonospora parasitica, 120 h, cabbage plants sprayed 24 hours before inoculation, scored after 5 days, read-out: % Wirkungsgrad
Experimental: In Vivo Test on Peronospora Parasitica (Downy Mildew on White Cabbage) An aqueous suspension of the active substance was prepared by homogenization of a mixture of acetone/Tween (dispersant)/dimethyl sulphoxide (DMSO) and subsequent dilution with water to the desired concentration. Cabbage plants (variety: Eminence) are sown in cultivation dishes on a peat-pozzolanic earth substrate (50/50) at 18-20° C. and sprayed at the cotyledon stage with the aqueous suspension described above. As a control, plants are sprayed with an aqueous solution with no active substance. After 24 hours, the plants are inoculated by spraying with an aqueous suspension of Peronospora parasitica spores (50,000 spores per ml). The spores are derived from infected plants. The inoculated cabbage plants are incubated for 5 days at ca. 20° C. in a moist atmosphere. After 5 days, they are scored in comparison with the control plants.

[2] = test system: Sphaerotheca fuliginea; assay: Example D: in vivo test on Sphaerotheca fuliginea (powdery mildew on cucumber); conditions: Podosphaera fuliginea, 288 h, cucumber plants sprayed 24 hours before inoculation, scored after 12 days, read-out: % Wirkungsgrad
Experimental: In Vivo Test on Sphaerotheca Fuliginea (Powdery Mildew on Cucumber) An aqueous suspension of the active substance was prepared by homogenization of a mixture of acetone/Tween/dimethyl sulphoxide and subsequent dilution with water to the desired concentration. Cucumber plants (variety: Vert petit de Paris) are sown in cultivation dishes on a peat-pozzolanic earth substrate (50/50) at 20/23° C. and at the cotyledon stage Z10 sprayed with the aqueous suspension described above. As a control, plants are sprayed with an aqueous solution with no active substance. After 24 hours the plants are inoculated by spraying with an aqueous suspension of Sphaerotheca fuliginea spores (100,000 spores per ml). The spores are derived from a contaminated plant. The inoculated cucumber plants are incubated at ca. 20/25° C. at a relative atmospheric humidity of 60/70%. After 12 days they are scored in comparison with the control plants.

[3] = test system: Mycosphaerella graminicola; assay: Example G: in vivo test on Mycosphaerella graminicola (wheat leaf blotch disease); conditions: Zymoseptoria tritici, wheat plants sprayed 24 hours before inoculation, scored after 21 to 28 days, read-out: % Wirkungsgrad
Experimental: In Vivo Test on Mycosphaerella Graminicola (Wheat Leaf Blotch Disease) An aqueous suspension of the active substance was prepared by homogenization of a mixture of acetone/Tween/dimethyl sulphoxide and subsequent dilution with water to the desired concentration. Wheat plants (variety: Scipion) are sown in cultivation dishes on a peat-pozzolanic earth substrate (50/50) at 12° C. and sprayed at the first-leaf stage (10 cm size) with the aqueous suspension described above. As a control, plants are sprayed with an aqueous solution with no active substance. After 24 hours the plants are inoculated by spraying with an aqueous suspension of Mycosphaerella graminicola spores (500,000 spores per ml). The spores are derived from a 7 day-old culture. […] After 21 to 28 days they are scored in comparison with the control plants.

[4] = physchem
[5] = test system: Sphaerotheca fuliginea; assay: Example L: in vivo test on Sphaerotheca fuliginea (powdery mildew on cucumber/protective); conditions: Podosphaera fuliginea, 168 h, cucumber, protective, assessment 7 days after inoculation, read-out: % Wirkungsgrad
How it was run: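 Young cucumber plants sprayed at stated dosage with compound in DMF/alkylaryl polyglycol ether emulsifier diluted in water; inoculated with S. fuliginea spores one day later. Kept in greenhouse at 70% relative humidity, 23° C; protective activity assessed 7 days after inoculation.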

[6] = test system: Alternaria solani; assay: Example M: in vivo test on Alternaria solani (leaf blotch disease/tomato/protective); conditions: 168 h, tomato, protective, 500 ppm active substance, assessed 7 days after inoculation, read-out: % Wirkungsgrad (activity level)
How it was run: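 Protective test: young tomato plants sprayed with active substance (in DMF with alkylaryl polyglycol ether emulsifier, diluted in water) at the stated dosage, then inoculated with Alternaria solani. Disease assessed 7 days after inoculation.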

[7] = test system: Fusarium proliferatum; assay: Example I: production of fumonisin FB1 by Fusarium proliferatum (microtitre plates); assay type: cell-based; conditions: 120 h
[8] = test system: Fusarium graminearum; assay: microbe, parasite or virus in culture; assay type: cell-based
[9] = test system: Plasmopara viticola; assay: Example N: in vivo test on Plasmopara viticola (downy mildew, vine/protective); conditions: 144 h, vine, protective, assessment 6 days after inoculation, read-out: % Wirkungsgrad
Experimental: (§1) Emulsifier: 1 part by weight alkylaryl polyglycol ethers For the preparation of a suitable active substance preparation, 1 part by weight of active substance is mixed with the stated quantities of solvent and emulsifier and the concentrate is diluted to the desired concentration with water. For the testing for protective activity, young plants are sprayed with the active substance preparation at the stated application dosage. […] The plants are then moistened and placed in an incubation cabin for 1 day. 6 days after the inoculation, the assessment takes place.

[10] = test system: Venturia inaequalis; assay: Example O: in vivo test on Venturia inaequalis (apple scab/protective); conditions: 240 h, protective, assessment 10 days after inoculation, read-out: % Wirkungsgrad
Experimental: as §1, with “10” for “The plants are then moistened and placed in an incubation cabin for 1 day. 6”

[11] = test system: Botrytis cinerea; assay: Example P: in vivo test on Botrytis cinerea (gray mould on bean/protective); conditions: 48 h, bean, protective, 250 ppm active substance, assessed 2 days after inoculation, read-out: % Wirkungsgrad (activity level)
Experimental: as §1, with “dosage. After drying of the spray coating, 2 small pieces of agar with Botrytis cinerea growing on them are laid on every leaf.” for “dosage.”, “2” for “The plants are then moistened and placed in an incubation cabin for 1 day. 6”, “size of the infection blotches on the leaves is assessed.” for “assessment takes place.”

[12] = test system: Fusarium nivale (var. majus); assay: whole plant or invertebrate; assay type: in vivo; conditions: Microdochium nivale, in Triticum aestivum, 120 h, read-out: % Wirkungsgrad (activity level)
[13] = test system: Fusarium graminearum; assay: whole plant or invertebrate; assay type: in vivo; conditions: in Hordeum vulgare, 120 h, read-out: % Wirkungsgrad (activity level)
[14] = LogPA (logP of the stated pure compound or, in a mixture, of the main isomer, 1-substituted 3-aryl-1H-pyrazole)
[15] = Fusarium proliferatum growth, OD 620, 5 days, read-out: % Inhibition des Pilzwachstums bei 50 μM
[16] = Fusarium proliferatum, 5 days at 20° C., HPLC-MS/MS, read-out: % Inhibition der FB1 produktion bei 50 μM
[17] = 72 h, read-out: % Inhibition des Pilzwachstums bei 50 μM
[18] = 168 h, read-out: % Inhibition der DON/AcDON produktion bei 50 μM

Structure (SMILES)	pest or weed control at 500 ppm [2] [%]	pest or weed control at 500 ppm [3] [%]	chromatographic logP [4, 14]	pest or weed control at 500 ppm [5] [%]	pest or weed control at 500 ppm [6] [%]	inhibition at 50 µM [8, 17] [%]	inhibition at 50 µM [8, 18] [%]	pest or weed control at 100 ppm [9] [%]	pest or weed control at 100 ppm [10] [%]	pest or weed control at 250 ppm [11] [%]	chromatographic logP ([4]; LogPA)	other results
CC(C)(C)Cn1ncc(-c2ccncc2)c1-c1c(F)cccc1F [Compound 6]	95	85	1.79	–	–	–	–	–	–	–	–	pest or weed control at 500 ppm [1]: 70%
Fc1cccc(F)c1-c1nn(CC(F)(F)F)cc1-c1ccncc1 [Compound 12]	95	77	1.39	–	–	–	–	–	–	–	–	–
Fc1cccc(F)c1-c1c(-c2ccncc2)cnn1C1CCC1 [Compound 15]	87	97	1.49	95	95	–	–	–	–	–	–	pest or weed control at 500 ppm [1]: 75%
Fc1cccc(F)c1-c1nn(C2CCCC2)cc1-c1ccncc1 [Compound 16]	–	97	1.79	–	–	–	–	–	–	–	–	–
Fc1cccc(F)c1-c1nn(CC2CCCO2)cc1-c1ccncc1 (centres unmarked) [Compound 26]	80	88	1.16	–	–	–	–	–	–	–	–	–
Fc1cccc(F)c1-c1c(-c2ccncc2)cnn1CC1CCCO1 (centres unmarked) [Compound 27]	73	97	1.21	–	–	–	–	–	–	–	–	–
C#CCn1ccc2c(-c3cn(C(C)C)nc3-c3ccc(F)cc3)ccnc21 [Compound 47]	–	77	3.63	–	–	–	–	–	–	–	–	inhibition at 50 µM [7, 15]: 0%; inhibition at 50 µM [7, 16]: 98%
CNC(=O)c1cc(-c2cn(C(C)C)nc2-c2ccc(F)cc2)ccn1 [Compound 53]	98	91	2.74	–	–	–	–	–	–	–	–	inhibition at 50 µM [7, 15]: 0%; inhibition at 50 µM [7, 16]: 96%
CC(C)n1ncc(-c2ccnc(NC(=O)C(C)(C)C)c2)c1-c1ccc(F)cc1 [Compound 72]	–	83	2.99	–	95	–	–	–	–	–	–	–
CC(=O)n1ccc2c(-c3cn(C4CCCCO4)nc3-c3ccc(F)cc3)ccnc21 (centres unmarked) [Compound 81]	77	97	3.85	–	95	–	–	–	–	–	–	pest or weed control at 500 ppm [1]: 89%
CCOC(=O)CCn1cc(-c2ccncc2)c(-c2ccc(F)cc2)n1 [Compound 132]	82	86	1.29	–	–	–	–	–	–	–	–	–
CC(C)CC(=O)Nc1cc(-c2cn(C(C)C)nc2-c2ccc(F)cc2)ccn1 [Compound 160]	–	–	2.82	100	95	100	100	79	94	100	–	–
CC(=O)Nc1cc(-c2cn(C(C)C)nc2-c2ccc(F)cc2)ccn1 [Compound 161]	–	–	1.85	100	95	104	100	95	95	100	–	–
C#CCNc1nccc(-c2cn(CC(C)C)nc2-c2ccc(F)cc2)n1 [Compound 183]	–	–	–	94	100	65	99	86	73	93	2.76	–
CC(C)n1cc(-c2ccnc(NC(=O)c3ccsc3)c2)c(-c2ccc(F)cc2)n1 [Compound 207]	–	–	–	100	90	75	100	71	86	100	2.96	–
CCC(=O)Nc1cc(-c2cn(CCCl)nc2-c2ccc(F)cc2)ccn1 [Compound 219]	–	–	–	100	–	97	100	95	96	100	2.01	inhibition at 50 µM [7, 15]: 97%; inhibition at 50 µM [7, 16]: 100%
CC(C)CC(=O)Nc1cc(-c2cn(CC(F)F)nc2-c2ccc(F)cc2)ccn1 [Compound 238]	–	–	–	100	94	–	–	88	98	93	2.63	pest or weed control at 1000 ppm [12]: 75%; pest or weed control at 1000 ppm [13]: 92%
O=C(CC1CC1)Nc1cc(-c2cn(CC3CC3(Cl)Cl)nc2-c2ccc(F)cc2)ccn1 (centres unmarked) [Compound 251]	–	–	–	96	94	–	–	–	84	95	3.3	pest or weed control at 1000 ppm [13]: 83%
O=C(Nc1cc(-c2cn(CC3CC3(Cl)Cl)nc2-c2ccc(F)cc2)ccn1)C1CC1 (centres unmarked) [Compound 260]	–	–	–	95	90	5	99	70	94	100	2.67	–
